# Data reported in patent publication US20200188466A1, “COMPOSITIONS OF SCHISANDRA EXTRACTS AND METHODS THEREOF” (Reyoung Corporation, priority 2017, published 2020).
# Where two headings read alike, the source gives them in different places.
# Experiments:
# [1] = Plasma kinetic study of colchicine with and without Schisandrin A; format: in vivo; settings: male, Sprague Dawley, rat, po, 3 mg/kg; for AUC(0-t): read-out: AUC0→t of colchicine; for AUC(0-inf): read-out: AUC0→∞ of colchicine; for MRT last: read-out: MRT0→t of colchicine; for MRT inf: read-out: MRT0→∞ of colchicine; for half-life: read-out: T1/2 of colchicine (converted)
# Protocol: 42 Male Sprague Dawley rats (weight, 170-210 g) were maintained on a 12-h light/dark cycle with free access to water and lab chow for 10-14 h prior to the experiment. Rats were randomly divided into 7 groups (n=6 each) and groups 2-7 received 0 mg/kg, 6.3 mg/kg, and 12.6 mg/kg, 25.2 mg/kg, 50.4 mg/kg and 63.0 mg/kg of Schisandrin A in 1% CMC-Na (300-800 cps) via oral administration, respectively. After 5 minutes, all the groups received 3.0 mg/kg of colchicine in a solution of 2% DMSO-98% sterile water via oral administration.
# After colchicine treatment, blood samples were collected from individual rat at 5 min, 15 min, 0.5 h, 1 h, 2 h, 4 h, 6 h, 8 h, 10 h, 24 h respectively. Plasma was separated by centrifugation at 8000 rpm for 6 minutes at 4° C. and kept at −80° C. until analysis. Plasma homogenate was injected into LC-MS/MS for analysis. Pharmacokinetic parameters of colchicine after a single oral dose of colchicine (3.0 mg/kg) in rats with and without different dose of Schisandrin A, including area under the concentration-time curve (AUC), mean residence time (MRT) and terminal elimination half-life (T1/2), Cmax, and Tmax are shown in Table 5.
# [2] = Toxicological study: serum chemistry after celastrol with and without Schisandrin A; format: in vivo, Sprague Dawley rats; settings: rats, 24 hours after celastrol 1.8 mg/kg oral
# Protocol: 42 Male Sprague Dawley rats (weight, 210-250 g) were maintained on a 12-hour light/dark cycle with free access to water and lab chow for 10-14 h prior to the experiment. Rats were randomly divided into 7 groups (n=6 each) and groups 2-7 received 0 mg/kg, 5.5 mg/kg, and 11.0 mg/kg, 22.0 mg/kg, 44.0 mg/kg and 88.0 mg/kg of Schisandrin A in 1% CMC-Na (300-800 cps) via oral administration, respectively. After 5 minutes, all the groups received 1.8 mg/kg of celastrol in a solution of 2% DMSO-98% sterile water via oral administration.
# At 24 hours of celastrol treatment, blood was collected from the rats in plasma kinetic study.
# [3] = Group1, rats, colchicine 3.0 mg/kg oral, no Schisandrin A dose stated
# [4] = Group2, rats, Schisandrin A 0 mg/kg oral 5 min before colchicine 3.0 mg/kg oral
# [5] = Group3, rats, Schisandrin A 6.3 mg/kg oral 5 min before colchicine 3.0 mg/kg oral
# [6] = Group4, rats, Schisandrin A 12.6 mg/kg oral 5 min before colchicine 3.0 mg/kg oral
# [7] = Group5, rats, Schisandrin A 25.2 mg/kg oral 5 min before colchicine 3.0 mg/kg oral
# [8] = Group6, rats, Schisandrin A 50.4 mg/kg oral 5 min before colchicine 3.0 mg/kg oral
# [9] = Group7, rats, Schisandrin A 63.0 mg/kg oral 5 min before colchicine 3.0 mg/kg oral
# [10] = Group 1, no Schisandrin A dose stated
# [11] = Group 2, Schisandrin A 0 mg/kg oral
# [12] = Group 3, Schisandrin A 5.5 mg/kg oral
# [13] = Group 4, Schisandrin A 11.0 mg/kg oral
# [14] = Group 5, Schisandrin A 22.0 mg/kg oral
# [15] = Group 6, Schisandrin A 44.0 mg/kg oral
# [16] = Group 7, Schisandrin A 88.0 mg/kg oral
smiles,measurement,setting,value
COc1cc2c(c(OC)c1OC)-c1ccc(OC)c(=O)cc1[C@@H](NC(C)=O)CC2 [colchicine],Cmax,[1]; [3],13.4 ± 4.38 ng/mL
same,Tmax,[1]; [3],10.2 ± 5.4 min
same,AUC(0-t),[1]; [3],48.9 ± 14.9 ng·h/mL
same,AUC(0-inf),[1]; [3],57.5 ± 16.1 ng·h/mL
same,MRT last,[1]; [3],4.54 ± 1.33 h
same,MRT inf,[1]; [3],6.99 ± 1.99 h
same,half-life,[1]; [3],312 ± 139 min
same,Cmax,[1]; [4],10.2 ± 2.63 ng/mL
same,Tmax,[1]; [4],13.2 ± 4.2 min
same,AUC(0-t),[1]; [4],32.9 ± 20.9 ng·h/mL
same,AUC(0-inf),[1]; [4],40.6 ± 22.2 ng·h/mL
same,MRT last,[1]; [4],3.89 ± 1.74 h
same,MRT inf,[1]; [4],6.86 ± 2.77 h
same,half-life,[1]; [4],280 ± 122 min
same,Cmax,[1]; [5],24.4 ± 6.12 ng/mL
same,Tmax,[1]; [5],11.4 ± 5.4 min
same,AUC(0-t),[1]; [5],74.4 ± 27 ng·h/mL
same,AUC(0-inf),[1]; [5],84.5 ± 30.5 ng·h/mL
same,MRT last,[1]; [5],5.04 ± 1.86 h
same,MRT inf,[1]; [5],7.67 ± 3.34 h
same,half-life,[1]; [5],367 ± 172 min
same,Cmax,[1]; [6],25.7 ± 9.67 ng/mL
same,Tmax,[1]; [6],11.4 ± 5.4 min
same,AUC(0-t),[1]; [6],71 ± 33.3 ng·h/mL
same,AUC(0-inf),[1]; [6],79.7 ± 34.9 ng·h/mL
same,MRT last,[1]; [6],3.95 ± 1.2 h
same,MRT inf,[1]; [6],6.54 ± 3.18 h
same,half-life,[1]; [6],394 ± 282 min
same,Cmax,[1]; [7],29.3 ± 11.9 ng/mL
same,Tmax,[1]; [7],6.6 ± 4.2 min
same,AUC(0-t),[1]; [7],75.5 ± 27.6 ng·h/mL
same,AUC(0-inf),[1]; [7],86.8 ± 36.2 ng·h/mL
same,MRT last,[1]; [7],4.04 ± 1.44 h
same,MRT inf,[1]; [7],7.29 ± 4.72 h
same,half-life,[1]; [7],452 ± 389 min
same,Cmax,[1]; [8],48.2 ± 12.4 ng/mL
same,Tmax,[1]; [8],18.6 ± 9.6 min
same,AUC(0-t),[1]; [8],151 ± 41.4 ng·h/mL
same,AUC(0-inf),[1]; [8],186 ± 70.5 ng·h/mL
same,MRT last,[1]; [8],5.1 ± 0.77 h
same,MRT inf,[1]; [8],11.7 ± 6.87 h
same,half-life,[1]; [8],783 ± 377 min
same,Cmax,[1]; [9],33.8 ± 14 ng/mL
same,Tmax,[1]; [9],15.6 ± 7.8 min
same,AUC(0-t),[1]; [9],84.8 ± 39.3 ng·h/mL
same,AUC(0-inf),[1]; [9],98.7 ± 41.9 ng·h/mL
same,MRT last,[1]; [9],4.09 ± 1.76 h
same,MRT inf,[1]; [9],7.52 ± 3.62 h
same,half-life,[1]; [9],455 ± 219 min
CC1=C(O)C(=O)C=C2C1=CC=C1[C@@]2(C)CC[C@@]2(C)[C@@H]3C[C@](C)(C(=O)O)CC[C@]3(C)CC[C@]12C [celastrol],Serum ALT,[2]; [10],54.5 ± 6.7 U/L
same,Serum AST,[2]; [10],100.0 ± 7.0 U/L
same,Serum creatinine,[2]; [10],0.48 ± 0.01 mg/dL
same,Serum urea,[2]; [10],19.6 ± 2.7 mg/dL
same,Serum ALT,[2]; [11],51.2 ± 3.5 U/L
same,Serum AST,[2]; [11],92.0 ± 6.0 U/L
same,Serum creatinine,[2]; [11],0.49 ± 0.05 mg/dL
same,Serum urea,[2]; [11],20.1 ± 1.8 mg/dL
same,Serum ALT,[2]; [12],54.5 ± 5.7 U/L
same,Serum AST,[2]; [12],91.0 ± 4.0 U/L
same,Serum creatinine,[2]; [12],0.48 ± 0.02 mg/dL
same,Serum urea,[2]; [12],19.4 ± 2.5 mg/dL
same,Serum ALT,[2]; [13],52.5 ± 5.8 U/L
same,Serum AST,[2]; [13],91.0 ± 9.0 U/L
same,Serum creatinine,[2]; [13],0.49 ± 0.02 mg/dL
same,Serum urea,[2]; [13],18.3 ± 1.5 mg/dL
same,Serum ALT,[2]; [14],49.3 ± 6.1 U/L
same,Serum AST,[2]; [14],106.0 ± 14.0 U/L
same,Serum creatinine,[2]; [14],0.50 ± 0.02 mg/dL
same,Serum urea,[2]; [14],16.5 ± 1.5 mg/dL
same,Serum ALT,[2]; [15],52.4 ± 8.3 U/L
same,Serum AST,[2]; [15],111.0 ± 40.0 U/L
same,Serum creatinine,[2]; [15],0.49 ± 0.01 mg/dL
same,Serum urea,[2]; [15],17.9 ± 4.0 mg/dL
same,Serum ALT,[2]; [16],53.4 ± 7.1 U/L
same,Serum AST,[2]; [16],92.0 ± 9.0 U/L
same,Serum creatinine,[2]; [16],0.49 ± 0.03 mg/dL
same,Serum urea,[2]; [16],18.8 ± 3.4 mg/dL
